Test results reported in patent US10703765B2 (priority 2014, dated 2020).
pKi: −log10 of the molar value. Counter-ions that a name gives are not always drawn.

Biological target: human σ1 receptor (Homo sapiens, UniProt Q99720)
Test: biochemical
Assay type: binding
Set-up: μ and σ1 dual binding: key to the marks not given beside the values
Conditions: not given

Chain of human σ1 receptor (Q99720 whole entry): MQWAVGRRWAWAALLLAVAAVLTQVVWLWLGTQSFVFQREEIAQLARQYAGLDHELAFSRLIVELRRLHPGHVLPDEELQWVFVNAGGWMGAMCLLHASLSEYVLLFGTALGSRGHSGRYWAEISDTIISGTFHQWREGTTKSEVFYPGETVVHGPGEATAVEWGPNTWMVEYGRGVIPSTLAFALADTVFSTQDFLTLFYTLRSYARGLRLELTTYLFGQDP

For `CC(=O)Nc1ccccc1CCN1CCC2(CC1)CN(c1ccccc1)C(=O)C(C)O2` (stereo not drawn) [Example 245, N-(2-(2-(2-methyl-3-oxo-4-phenyl-1-oxa-4,9-diazaspiro[5.5]undecan-9-yl)ethyl)phenyl)acetamide], which “μ and σ1 dual binding” value is on record?
Its value is “++”.

How did the pKi turn out when `CC1OC2(CCN(CCc3ccccc3)CC2)CN(Cc2cccc(C(F)(F)F)n2)C1=O` (stereo not drawn) [Example 174, 2-methyl-9-phenethyl-4-((6-(trifluoromethyl)pyridin-2-yl)methyl)-1-oxa-4,9-diazaspiro[5.5]undecan-3-one hydrochloride] was run?
The pKi was > 7.00.

`CC1OC2(CCN(Cc3ccccc3)CC2)CN(c2ccccc2)C1=O.Cl` (stereo not drawn) [Example 16, 9-benzyl-2-methyl-4-phenyl-1-oxa-4,9-diazaspiro[5.5]undecan-3-one hydrochloride] was tested. Which “μ and σ1 dual binding” value did it give?
Its value is “++”.

With `CC1OC2(CCN(CCc3ccccc3)CC2)CN(c2cccnc2F)C1=O` (stereo not drawn) [Example 213, 4-(2-fluoropyridin-3-yl)-2-methyl-9-phenethyl-1-oxa-4,9-diazaspiro[5.5]undecan-3-one] as the compound, how does the pKi read?
The pKi was > 7.00.

How did the pKi turn out when `CC1OC2(CCN(CC(O)c3ccccc3)CC2)CN(c2ccccc2)C1=O` (mixture of isomers) [Example 150, 9-(2-hydroxy-2-phenylethyl)-2-methyl-4-phenyl-1-oxa-4,9-diazaspiro[5.5]undecan-3-one] was run?
The pKi was < 6.30.

How did the “μ and σ1 dual binding” value turn out when `CC1CN(CCc2cccnc2)CC2(CCN(CCc3ccccc3)CC2)O1` (stereo not drawn) [Example 331, 2-methyl-9-phenethyl-4-(2-(pyridin-3-yl)ethyl)-1-oxa-4,9-diazaspiro[5.5]undecane hydrochloride] was run?
Its value is “++”.

With `O=C1N(c2ccccc2)CC2(CCN(CC(O)c3ccccc3)CC2)OC12CC2` (stereo not drawn) [Example 277, 8-(2-hydroxy-2-phenylethyl)-12-phenyl-4-oxa-8,12-diazadispiro[2.1.5.3]tridecan-13-one] as the compound, how does the pKi read?
The pKi was > 7.00.

How did the “μ and σ1 dual binding” value turn out when `CC1OC2(CCN(CCc3ccccc3)CC2)CN(c2cccc(C#N)c2)C1=O.Cl` (stereo not drawn) [Example 198, 3-(2-methyl-3-oxo-9-phenethyl-1-oxa-4,9-diazaspiro[5.5]undecan-4-yl)benzonitrile hydrochloride] was run?
Its value is “++”.

How did the “μ and σ1 dual binding” value turn out when `CC1OC2(CCN(CCC3CCOCC3)CC2)CN(c2ccccc2)C1=O.Cl` (stereo not drawn) [Example 131, 2-methyl-4-phenyl-9-(2-(tetrahydro-2H-pyran-4-yl)ethyl)-1-oxa-4,9-dizaspiro[5.5]undecan-3-one hydrochloride] was run?
Its value is “++”.

Same assay, conditions: combined class from Ki-σ1 (human σ1 receptor, A1) and Ki-μ (human μ-opioid receptor, A2) radioligand binding

Which “μ and σ1 dual binding” value does the source give for `COc1ccnc(CCN2CCC3(CC2)CN(c2ccccc2)C(=O)C(C)O3)c1` (stereo not drawn) [Example 35, 9-(2-(4-methoxypyridin-2-yl)ethyl)-2-methyl-4-phenyl-1-oxa-4,9-diazaspiro[5.5]undecan-3-one] here?
The value was “++”.

How did the “μ and σ1 dual binding” value turn out when `COc1cccc(N2CC3(CCN(Cc4ccccc4)CC3)OCC2=O)c1` [Example 6, 9-benzyl-4-(3-methoxyphenyl)-1-oxa-4,9-diazaspiro[5.5]undecan-3-one] was run?
Its value is “++”.

For `COCC1OC2(CCN(CCc3ccccc3OC)CC2)CN(c2ccccc2F)C1=O` (stereo not drawn) [Example 135, 4-(2-fluorophenyl)-2-(methoxymethyl)-9-(2-methoxyphenethyl)-1-oxa-4,9-diazaspiro[5.5]undecan-3-one], which “μ and σ1 dual binding” value is on record?
The value was “++”.

For `CC1OC2(CCN(CCc3cccc(NC(=O)N(C)C)c3)CC2)CN(c2ccccc2)C1=O` (stereo not drawn) [Example 248, 1,1-dimethyl-3-(3-(2-(2-methyl-3-oxo-4-phenyl-1-oxa-4,9-diazaspiro[5.5]undecan-9-yl)ethyl)phenyl)urea], which “μ and σ1 dual binding” value is on record?
Its value is “++”.

Which “μ and σ1 dual binding” value does the source give for `O=C1COC2(CCN(Cc3ccccc3)CC2)CN1c1cccc(O)c1` [Example 287, 9-benzyl-4-(3-hydroxyphenyl)-1-oxa-4,9-diazaspiro[5.5] undecan-3-one] here?
The value was “++”.

Same assay, conditions: read-out: μ and σ1 dual binding

With `CC1OC2(CCN(CCc3ccccc3)CC2)CN(c2cncc(F)c2)C1=O` (stereo not drawn) [Example 216, 4-(5-fluoropyridin-3-yl)-2-methyl-9-phenethyl-1-oxa-4,9-diazaspiro[5.5]undecan-3-one hydrochloride] as the compound, how does the pKi read?
The pKi was > 6.30.

How did the pKi turn out when `Fc1cccnc1CCN1CCC2(CC1)CN(Cc1ccccc1)CC1(CC1)O2` [Example 344, 12-benzyl-8-(2-(3-fluoropyridin-2-yl)ethyl)-4-oxa-8,12-diazadispiro[2.1.5.3]tridecane] was run?
The pKi was > 7.00.

`CC1OC2(CCN(CCc3ccccc3)CC2)CN(c2cncc(C(F)(F)F)c2)C1=O` (stereo not drawn) [Example 217, 2-methyl-9-phenethyl-4-(5-(trifluoromethyl)pyridin-3-yl)-1-oxa-4,9-diazaspiro[5.5]undecan-3-one hydrochloride] was tested. Which pKi did it give?
Its pKi is > 6.30.

`CC(=O)Nc1cc(CCN2CCC3(CC2)CN(c2ccccc2)C(=O)C(C)O3)ccn1` (stereo not drawn) [Example 255, N-(4-(2-(2-methyl-3-oxo-4-phenyl-1-oxa-4,9-diazaspiro[5.5]undecan-9-yl)ethyl)pyridin-2-yl)acetamide hydrochloride] was tested. Which pKi did it give?
Its pKi is < 6.30.

With `c1ccc(CCN2CCC3(CC2)CN(Cc2ccccn2)CCO3)cc1` [Example 336, 9-phenethyl-4-(pyridin-2-ylmethyl)-1-oxa-4,9-diazaspiro[5.5]undecane dihydrochloride] as the compound, how does the pKi read?
Its pKi is > 7.00.

With `CNS(=O)(=O)c1ccc(CCN2CCC3(CC2)CN(c2ccccc2)C(=O)C(C)O3)cc1` (stereo not drawn) [Example 107, N-methyl-4-(2-(2-methyl-3-oxo-4-phenyl-1-oxa-4,9-diazaspiro[5.5]undecan-9-yl)ethyl)benzenesulfonamide] as the compound, how does the pKi read?
Its pKi is < 6.30.

With `COc1ccccc1N1CC2(CCN(CCc3ccccc3)CC2)OC(C)C1=O` (stereo not drawn) [Example 206, 4-(2-methoxyphenyl)-2-methyl-9-phenethyl-1-oxa-4,9-diazaspiro[5.5]undecan-3-one hydrochloride] as the compound, how does the pKi read?
The pKi was > 7.00.

With `CC(C)C1OC2(CCN(CCc3cccnc3[N+](=O)[O-])CC2)CN(c2ccccc2F)C1=O` (stereo not drawn) [Example 39, 4-(2-fluorophenyl)-2-isopropyl-9-(2-(2-nitropyridin-3-yl)ethyl)-1-oxa-4,9-diazaspiro[5.5]undecan-3-one] as the compound, how does the pKi read?
Its pKi is < 6.30.

`O=C1COC2(CCN(CCc3cccc([N+](=O)[O-])c3)CC2)CN1Cc1ccc(C(F)(F)F)cn1` [Example 103, 9-(3-nitrophenethyl)-4-((5-(trifluoromethyl)pyridin-2-yl)methyl)-1-oxa-4,9-diazaspiro[5.5]undecan-3-one] was tested. Which pKi did it give?
The pKi was < 6.30.

How did the pKi turn out when `O=C1N(c2cccnc2C(F)(F)F)CC2(CCN(CCc3ccccc3F)CC2)OC12CC2` [Example 219, 8-(2-fluorophenethyl)-12-(2-(trifluoromethyl)pyridin-3-yl)-4-oxa-8,12-diazadispiro[2.1.5.3]tridecan-13-one] was run?
The pKi was > 6.30.

With `CC1OC2(CCN(CC(=O)N(C)c3ccccc3)CC2)CN(c2ccccc2)C1=O` (stereo not drawn) [Example 315, N-methyl-2-(2-methyl-3-oxo-4-phenyl-1-oxa-4,9-diazaspiro[5.5]undecan-9-yl)-N-phenylacetamide hydrochloride] as the compound, how does the pKi read?
Its pKi is < 6.30.

`COCC1OC2(CCN(CCc3ccccc3)CC2)CN(c2ccccc2)C1=O` (stereo not drawn) [Example 11, 2-(methoxymethyl)-9-phenethyl-4-phenyl-1-oxa-4,9-diazaspiro[5.5]undecan-3-one] was tested. Which pKi did it give?
The pKi was > 7.00.

How did the pKi turn out when `O=C1C(COCc2ccccc2)OC2(CCN(CCc3ccccc3)CC2)CN1c1ccccc1` (stereo not drawn) [Example 19, 2-((benzyloxy)methyl)-9-phenethyl-4-phenyl-1-oxa-4,9-diazaspiro[5.5]undecan-3-one hydrochloride] was run?
The pKi was > 7.00.
